Measured values as given in paper PMC5920042, “KH176 Safeguards Mitochondrial Diseased Cells from Redox Stress-Induced Cell Death by Interacting with the Thioredoxin System/Peroxiredoxin Enzyme Machinery” (Scientific Reports, 2018).
“Also recorded” adds a separate entry of the source.

Experiments:
P4 cell line [1] = test: Redox Stress Survival assay (BSO-induced cell death, Calcein AM viability); type: cell-based, human; conditions: P4 cells
Procedure: (§1) Cells were seeded at a density of 4 × 10^3 cells/well into 96-wells black plates and incubated for 24 h. To induce redox stress, semi-logarithmic dilutions of buthionine sulphoximine (BSO, #B2515, Sigma Aldrich) up to 100 µM were added to the cells in culture medium and incubated for 24 h. Cell viability was assessed by quantification of cellular conversion of Calcein AM into fluorescent Calcein. Briefly, after having discarded the BSO containing medium, cells were washed once with M199 without phenol red and loaded with 2 µM Calcein AM (#65-0853-39, Affimetrix eBioscience) in M199 without phenol red for 25 min. At the end of the incubation period, the excess of the dye was washed with M199 without phenol red and Calcein fluorescence was measured with a scanning microplate reader (BMG FLUOstar Omega; Ex. 480 nm, Em. 520 nm). For compound screening and target identification measurements cells were treated with 200 µM BSO alone or in co-incubation with semi-logarithmic dilutions of the test compound. Additionally, where indicated, increasing doses of Auranofin (AFN, #BML-EI206-0100, Enzo) or Aurothioglucose (ATG, #A0606, Sigma Aldrich) were co-incubated with BSO and the test compound. In all cases, cell viability was assessed 24 h after the treatment.

[2] = test system: P6 cell line (Complex I, NDUFS8); test: Redox Stress Survival assay (BSO sensitivity); type: cell-based, human; conditions: P6, 24 h
Procedure: as §1

C1 control cell line = test: Redox Stress Survival assay (BSO sensitivity); type: cell-based, human; conditions: C1, 24 h
Procedure: as §1

C3 control cell line = test: Redox Stress Survival assay (BSO sensitivity); type: cell-based, human; conditions: C3, 24 h
Procedure: as §1

C2 control cell line = test: Redox Stress Survival assay (BSO sensitivity); type: cell-based, human; conditions: C2, 24 h
Procedure: as §1

[3] = test system: P2 cell line (Complex I, NDUFS2); test: Redox Stress Survival assay (BSO sensitivity); type: cell-based, human; conditions: P2, 24 h
Procedure: as §1

P4 cell line [4] = test: Cellular ROS assay (DCFH-DA); type: cell-based, human
Procedure: The cells were then treated for 72 h (or shorter as indicated) with culture medium containing semi-logarithmic dilutions of the test compound. Alternatively, 3 × 10^3 cells/well were seeded when cells were treated for 24 h only. At the end of the incubation period, cells were loaded with 40 µM DCFH-DA (#D6883, Sigma-Aldrich). in M199 without phenol red for 30 min. The excess of the dye was washed with ice-cold M199 without phenol red and the cells were lysed with 100 µl/well of ice-cold 0.2% Triton X-100 in M199 without phenol red after 10 min incubation in ice. Cellular debris was spun down by centrifugation at 2600 g, 5 min, +4 °C and 90 µl/well of cell lysate were transferred to a black 96-wells plate and DCF fluorescence was measured on a scanning microplate reader (BMG FLUOstar Omega; Ex. 480 nm, Em. 520 nm).

[5] = test system: primary human skin fibroblasts; test: CumOOH induced lipid peroxidation (bodipy 581/591 C11); type: cell-based; conditions: 30 µM cumOOH, bodipy 581/591 C11
Procedure: The cells were seeded at a density of 3 × 10^3 cells/well into 96-wells black plates. After 24 h, the cells were coincubated with 500 nM bodipy 581/591 C11 (#D3861, Thermo Fisher) and different amounts of KH compound in M199 without phenol red. This medium was used in all subsequent washes and incubations. After 30 min. incubation the cells were washed twice and subsequently incubated with 30 μM cumene hydroperoxide (cumOOH). For background subtractions cells with the dye but without cumOOH were used. After 30 minutes incubation and two washes oxidized bodipy 581/591 C11 was quantified on an automated bioimager (BD Pathway 855), by using a 20x objective and Ex. 488/10 nm, Em. FURA/FITC. Total cellular fluorescence per well was normalized on the number of cellular pixels/well and normalized on the incubation with probe and cumOOH but without compound (vehicle set as 100%). Experiments were performed at least three times with 3 wells per experiment.

P4 cell line [6] = test: Radical-Scavenging Capacity assay (CM-H2DCFDA, H2O2 or KO2); type: cell-based, human; conditions: P4 cells, 100 µM H2O2 or 1 mM KO2 (text: KOH), 3 µM compound
Procedure: Cells were seeded at a density of 4 × 10^3 cells/well into 96-wells black plates. After 24 h the cells were loaded with 5 µM CM-H2DCFDA in M199 without phenol red for 20 min. The dye excess was washed with M199 without phenol red and immediately after, cells were treated acutely with different concentrations of the test compounds in M199 without phenol red. To generate radicals, 100 µM H2O2 or 1 mM KO2 were injected to the compound-treated cells and CM-DCF fluorescence was measured every 2 min for 70 cycles on a scanning microplate reader (BMG FLUOstar Omega; Ex. 480 nm, Em. 520 nm). The area under the generated curves was calculated using the Origin 6.1 software (OriginLab).

Question: Which results are given for `CCCCS(=N)(=O)CCC(N)C(=O)O` (centres unmarked) [BSO, Buthionine sulphoximine]?
Answer: IC50 (P4 cell line [1]; 24 h BSO up to 100 µM): 3.8 µM; IC50 BSO [2]: n.s.; IC50 BSO (C1 control cell line): n.s.; IC50 BSO (C3 control cell line): n.s.; IC50 BSO (C2 control cell line): n.s.; IC50 BSO [3]: n.s.

Question: With auranofin [AFN, reference compound] as the compound, how does the “Effect of thioredoxin reductase inhibition on rescue by KH176(m)” value (P4 cell line [1]; 200 µM BSO, 100 nM AFN) read?
Answer: Its value is “decrease of the capacity of KH176(m) to rescue the cells”.

Question: And the “Effect of thioredoxin reductase inhibition on ROS reduction by KH176m” value (P4 cell line [4]; 24 hours, 100 nM AFN with 1 µM KH176m, DCFH-DA)?
Answer: Its value is “did not affect the capacity of KH176m to reduce the DCFH-DA signal”.

Question: Which results are given for `COc1c(C)c(C)c2c(c1C)CC[C@@](C)(C(=O)N[C@@H]1CCCNC1)O2` [KH176i]?
Answer: Rescue of cell viability from BSO-induced death (P4 cell line [1]; 200 µM BSO, 24 h): unable to rescue cell viability; Effect on CumOOH induced lipid peroxidation [5]: no effect; also recorded: no activity; Activity in the ROS assay (P4 cell line [4]; P4 cells, 24 h compound treatment): inactive; Reduction of H2O2-induced radicals and O2.- (CM-H2DCFDA oxidation) (P4 cell line [6]): not

Question: How did the EC50 (P4 cell line [1]; Homo sapiens, 200 µM BSO, 24 h) turn out when `Cc1c(C)c2c(c(C)c1O)CCC(C)(C(=O)O)O2` (centres unmarked) [Trolox, reference compound] was run?
Answer: The EC50 was 38 µM.

Question: What about the IC50 (P4 cell line [4]; Homo sapiens, P4 cells, 72 h treatment) of the same compound?
Answer: Its IC50 is 187 µM.
